Legend:
[1] = test system: Pyricularia oryzae Carvara KA301; assay: whole plant or invertebrate; assay type: in vivo; conditions: Pyricularia oryzae, read-out: RCB control value (C.V.)
[2] = test system: Botrytis cinerae; assay: Fungicidal activity against cucumber gray mold rot (CGM) disease, control value; assay type: in vivo; conditions: Botrytis, cucumber gray mold rot, read-out: CGM control value (C.V.)
[3] = test system: Phytophthora infestans; assay: whole plant or invertebrate; assay type: in vivo; conditions: Phytophthora infestans, in Solanum lycopersicum, read-out: TLB control value (C.V.)
[4] = test system: Puccinia recondita; assay: Fungicidal activity against wheat leaf rust (WLR) disease, control value; assay type: in vivo; conditions: wheat leaf rust, read-out: WLR control value (C.V.)
[5] = test system: Erysiphae graminis; assay: Fungicidal activity against barley powdery mildew (BPM) disease, control value; assay type: in vivo; conditions: Hordeum vulgare, 168 h, barley powdery mildew, read-out: BPM control value (C.V.)
[6] = test system: Rhizoctonia solani AG-1; assay: Fungicidal activity against rice sheath blight (RSB) disease, control value; conditions: Rhizoctonia solani, AG1, in Oryza sativa, read-out: RSB control value (C.V.)

SMILES | pest or weed control at 2 ppm [1] [%] | pest or weed control at 10 ppm [1] [%] | pest or weed control at 50 ppm [1] [%] | pest or weed control at 100 ppm [1] [%] | pest or weed control at 100 ppm [2] [%] | pest or weed control at 100 ppm [3] [%] | pest or weed control at 2 ppm [4] [%] | pest or weed control at 10 ppm [4] [%] | pest or weed control at 50 ppm [4] [%] | pest or weed control at 100 ppm [4] [%] | pest or weed control at 2 ppm [5] [%] | pest or weed control at 10 ppm [5] [%] | pest or weed control at 50 ppm [5] [%] | pest or weed control at 100 ppm [5] [%] | pest or weed control at 2 ppm [6] [%] | pest or weed control at 10 ppm [6] [%] | pest or weed control at 50 ppm [6] [%] | pest or weed control at 100 ppm [6] [%] | pest or weed control at 2 ppm [3] [%] | pest or weed control at 50 ppm [3] [%] | also measured
CNC(=O)/C(=N/OC)c1ccccc1COc1ccc(C=C(Cl)Cl)cc1Cl [Example 40, (E)-2-(2-((2-chloro-4-(2,2-dichlorovinyl)phenoxy)methyl)phenyl)-2-methoxyimino-N-methylacetamide] | 100 | 100 | 100 | 100 | 10 | 30 | 100 | 100 | 100 | 100 | 100 | 100 | 100 | 100 | 100 | 100 | 100 | 100 |  |  | 
CO/N=C(/C(=O)OC)c1ccccc1COc1ccc(C=C(Cl)Cl)cc1C [Example 41, methyl-(E)-2-(2-((4-(2,2-dichlorovinyl)-2-methylphenoxy)methyl)phenyl)-2-methoxyiminoacetate] | 100 | 100 | 100 | 100 | 90 | 100 | 100 | 100 | 100 | 100 | 100 | 100 | 100 | 100 | 100 | 100 | 100 | 100 | 100 | 100 | pest or weed control at 50 ppm ([2]; 50 ppm): 75%; pest or weed control at 10 ppm [3]: 100%
CNC(=O)/C(=N/OC)c1ccccc1COc1ccc(C=C(Cl)Cl)cc1C [Example 42, (E)-2-(2-((4-(2,2-dichlorovinyl)-2-methylphenoxy)methyl)phenyl)-2-methoxyimino-N-methylacetamide] | 100 | 100 | 100 | 100 | 0 | 95 | 100 | 100 | 100 | 100 | 100 | 100 | 100 | 100 | 100 | 100 | 100 | 100 |  | 70 | 
CO/N=C(/C(=O)OC)c1ccccc1COc1cccc(C=C(Cl)Cl)c1Cl [Example 43, methyl-(E)-2-(2-((2-chloro-3-(2,2-dichlorovinyl)phenoxy)methyl)phenyl)-2-methoxyiminoacetate] | 90 | 99 | 100 | 100 | 0 | 100 | 100 | 100 | 100 | 100 | 100 | 100 | 100 | 100 | 90 | 100 | 100 | 100 | 100 | 100 | pest or weed control at 10 ppm [3]: 100%
